Laboratory results as given in patent US20100209536A1, “Methods and Kits for Use in the Treatment and Prevention of Diseases or Conditions of the Immune System or Infectious Diseases” (The Brigham and Women's Hospital, Inc., priority 2006, published 2010).

Key:
Assay type in all cases: in vivo, human
[1] = system: severe asthma exacerbations in childhood asthmatics; assay: Childhood Asthma Management Program: baseline serum 25(OH)D and outcomes in childhood asthmatics on inhaled corticosteroid
Text: We measured 25(OH)D levels in stored serum (collected on entry into the trial) from 305 childhood asthmatics who were randomized to the inhaled corticosteroid arm of the multi-center Childhood Asthma Management Program. We then analyzed baseline 25(OH)D levels for their association with severe asthma exacerbations (defined as emergency room visits or hospitalizations for asthma) over the course of the 4-year trial.

[2] = system: recurrent wheeze in the first 2 yrs; assay: Project Viva antioxidant study: maternal intake and recurrent wheeze in the first 2 yrs; details: for Recurrent wheeze in the first 2 yrs, Multivariable Model OR (95% CI) / Recurrent wheeze in the first 2 yrs, Univariate Model OR (95% CI): including supplements; for Recurrent Wheeze, Foods Only OR / Recurrent Wheeze, Supplements Only OR: univariate; for Recurrent Wheeze, Foods Only OR: intake from foods only; for Recurrent Wheeze, Supplements Only OR: intake from supplements only
Text: (§1) Study subjects were enrolled in Project Viva, as described above. Recruitment and retention procedures have previously been published (Gillman et al., J. Pediatr. 144:240-245, 2004). We obtained information directly from participants and from medical records as detailed previously (Rifas-Shiman, Paediatr. Perinat. Epidemiol. 20:35-42, 2006). Data collected from interviews and questionnaires included demographics (infant gender, maternal marital status, and race), socioeconomic status (education and household income), and reproductive history (maternal gravidity, pre-pregnancy height and body mass index, and smoking). Questionnaires that inquired about infant health, feeding, and the home environment were administered when the child was 6 months, 1 year, and 2 years of age. Among 2,128 delivered infants in Project Viva, we excluded 228 participants because of missing first and second trimester diet assessment data and an additional 37 participants with a gestation of less than 34 completed weeks.
(§2) We assessed maternal diet using semi-quantitative food-frequency questionnaires (FFQ) validated for use during pregnancy (Fawzi et al., Ann. Epidemiol. 14:754-762, 2004), and used in several of our previous studies of maternal diet and offspring outcomes (Oken et al., Am. J. Epidemiol. 160:774-783, 2004; Huh et al., Int. J. Epidemiol. 34:378-384, 2005; Gillman et al., Circulation 110:1990-1995, 2004). As noted above, the FFQ used at the 1st visit reflected intakes in the 1st trimester; the time referent was “during this pregnancy,” that is from the date of the last menstrual period until the assessment, at an average of about 10 weeks gestation. To assess vitamin and supplement intake during the 1st trimester, we administered a separate interview that queried dose, duration, and brand/type of multivitamin, prescribed prenatal vitamins, and supplements. Also as noted above, the FFQ used at the 2nd visit (26 to 28 weeks of gestation) reflected intakes during the 2nd trimester; the time referent was “during the past 3 months.” The 2nd trimester instrument was the same as that for the 1st trimester except that we assessed use of vitamins/supplements as part of the self-completed FFQ.
(§3) To calculate intake of nutrients, we again used the Harvard nutrient composition database, which contains food composition values from the U.S. Department of Agriculture, supplemented by other data sources (U.S. Department of Agriculture ARS. USDA National Nutrient Database for Standard Reference, Release 14, 5R14; 2001). All nutrients were adjusted for total energy intake using the nutrient residuals method (Willett, Am. J. Clin. Nutr. 45:354-360, 1987). Mean nutrient intakes from the 1st and 2nd trimesters were used as the exposure in the analyses. If a participant only completed one FFQ, then nutrients calculated from that questionnaire were taken as the exposure of interest. One thousand one hundred and thirty-five (88.0%) of the 1,290 participants completed both FFQs, 96 (7.4%) completed the first trimester FFQ only, and 59 (4.6%) completed the second trimester FFQ only.
(§4) We ascertained the wheeze outcomes from questions from the First Year and Second Year Questionnaires: “since your child was born/since your child was […], has he/she ever had wheezing (or whistiling in the chest)?” “Any wheeze” was defined as a positive response to the question at either the first or second year questionnaire. “Recurrent wheeze” was defined as positive responses to the questions in both the first and second year questionnaires. […] “Respiratory infections” was defined as positive responses to one of three questions: “since your child was born/12 months old, have you been told by a health care professional (such as a doctor, physician assistant, or nurse practitioner) that your child has: (a) bronchiolitis; (b) pneumonia; (c) bronchitis, croup, or any other respiratory infection?” on either the first or second year questionnaires. […]

[3] = system: respiratory infections in the 2-year old children; assay: Project Viva antioxidant study: maternal intake and respiratory infections in 2-year old children
Text: as §1
We assessed maternal diet using semi-quantitative food-frequency questionnaires (FFQ) validated for use during pregnancy (Fawzi et al., Ann. Epidemiol. 14:754-762, 2004), and used in several of our previous studies of maternal diet and offspring outcomes (Oken et al., Am. J. Epidemiol. 160:774-783, 2004; Huh et al., Int. J. Epidemiol. 34:378-384, 2005; Gillman et al., Circulation 110:1990-1995, 2004). As noted above, the FFQ used at the 1st visit reflected intakes in the 1st trimester; the time referent was “during this pregnancy,” that is from the date of the last menstrual period until the assessment, at an average of about 10 weeks gestation. […] Also as noted above, the FFQ used at the 2nd visit (26 to 28 weeks of gestation) reflected intakes during the 2nd trimester; the time referent was “during the past 3 months.” The 2nd trimester instrument was the same as that for the 1st trimester except that we assessed use of vitamins/supplements as part of the self-completed FFQ. […]

[4] = system: any wheeze in the first 2 yrs; assay: Project Viva antioxidant study: maternal intake and any wheeze in the first 2 yrs; details: for Any wheeze in the first 2 yrs, Univariate Model OR (95% CI) / Any wheeze in the first 2 yrs, Multivariable Model OR (95% CI): including supplements; for Any Wheeze, Foods Only OR / Any Wheeze, Supplements Only OR: univariate; for Any Wheeze, Foods Only OR: intake from foods only; for Any Wheeze, Supplements Only OR: intake from supplements only; for Association of total maternal intake with any wheeze in univariable models: total intakes
Text: as §1, §2, §3, §4

[5] = 2nd vs 1st (lowest) quartile of maternal intake
[6] = 2nd vs 1st (lowest) quartile of maternal intake, n = 1,038
[7] = 3rd vs 1st (lowest) quartile of maternal intake
[8] = 4th (highest) vs 1st (lowest) quartile of maternal intake
[9] = 4th (highest) vs 1st (lowest) quartile of maternal intake, listed as zinc
[10] = 4th (highest) vs 1st (lowest) quartile
[11] = 2nd vs 1st (lowest) quartile of maternal intake, calorie adjusted, n = 1,161
[12] = 4th (highest) vs 1st (lowest) quartile of maternal intake, listed as vitamin E

Row | Molecule | Recurrent wheeze in the first 2 yrs, Multivariable Model OR (95% CI) [2, 5] | Recurrent wheeze in the first 2 yrs, Univariate Model OR (95% CI) [2, 6] | Recurrent Wheeze, Foods Only OR ([2]; 2nd vs 1st (lowest) quartile) | Recurrent Wheeze, Supplements Only OR ([2]; 2nd vs 1st (lowest) quartile) | Recurrent wheeze in the first 2 yrs, Multivariable Model OR (95% CI) [2, 7] | Recurrent wheeze in the first 2 yrs, Univariate Model OR (95% CI) [2, 7] | Recurrent Wheeze, Foods Only OR ([2]; 3rd vs 1st (lowest) quartile) | Recurrent Wheeze, Supplements Only OR ([2]; 3rd vs 1st (lowest) quartile) | Recurrent wheeze in the first 2 yrs, Multivariable Model OR (95% CI) [2, 8] | Recurrent wheeze in the first 2 yrs, Univariate Model OR (95% CI) [2, 8] | Recurrent Wheeze, Foods Only OR [2, 10] | Recurrent Wheeze, Supplements Only OR [2, 10] | Association of total maternal intake with respiratory infections in the children [3] | Any wheeze in the first 2 yrs, Univariate Model OR (95% CI) [4, 11] | Any wheeze in the first 2 yrs, Multivariable Model OR (95% CI) [4, 5] | Any Wheeze, Foods Only OR ([4]; 2nd vs 1st (lowest) quartile) | Any Wheeze, Supplements Only OR ([4]; 2nd vs 1st (lowest) quartile) | Any wheeze in the first 2 yrs, Multivariable Model OR (95% CI) [4, 7] | Any wheeze in the first 2 yrs, Univariate Model OR (95% CI) [4, 7] | Any Wheeze, Foods Only OR ([4]; 3rd vs 1st (lowest) quartile) | further results
1 | 25-Hydroxyvitamin D [25(OH)D] |  |  |  |  |  |  |  |  |  |  |  |  |  |  |  |  |  |  |  |  | Association with lung function, bronchodilator response, or airway responsiveness ([1]; 305 childhood asthmatics on inhaled corticosteroid): no associations; OR, severe asthma exacerbations over the course of the 4-year trial ([1]; children with 25(OH)D levels ≦30 ng/ml, on inhaled corticosteroid, adjusted for age, sex, height, baseline FEV1): 1.76
2 | [Zn] [Zinc, zinc] | 0.61 (0.35, 1.06) | 0.56 (0.34, 0.92) | 0.70 | 0.94 | 0.89 (0.53, 1.49) | 0.73 (0.46, 1.17) | 0.65 | 0.59 | 0.49 (0.27, 0.87) | 0.41 (0.24, 0.69)^5 | 0.68 | 0.51 | not associated | 0.77 (0.55, 1.08) | 0.89 (0.61, 1.29) | 0.85 | 0.98 | 0.85 (0.59, 1.24) | 0.67 (0.47, 0.94)^5 | 0.60 | Recurrent wheeze in the first 2 yrs, Multivariable Model OR (95% CI) [2, 9]: 0.49; Any Wheeze, Supplements Only OR ([4]; 3rd vs 1st (lowest) quartile): 0.67; Any wheeze in the first 2 yrs, Multivariable Model OR (95% CI) [4, 8]: 0.59 (0.41, 0.88)^5; Any wheeze in the first 2 yrs, Univariate Model OR (95% CI) [4, 8]: 0.49 (0.34, 0.70)^5; Any wheeze in the first 2 yrs, Multivariable Model OR (95% CI) [4, 9]: 0.59; Any Wheeze, Foods Only OR [4, 10]: 0.60; Any Wheeze, Supplements Only OR [4, 10]: 0.63; Association of total maternal intake with any wheeze in univariable models [4]: associated with lower risks
3 | vitamin E | 0.79 (0.47, 1.34) | 0.60 (0.37, 0.98) | 0.66 | 0.83 | 0.90 (0.54, 1.52) | 0.68 (0.43, 1.10) | 0.58 | 0.50 | 0.49 (0.27, 0.90)^5 | 0.36 (0.20, 0.62)^5 | 0.61 | 0.56 | not associated | 0.71 (0.51, 1.01) | 0.90 (0.62, 1.31) | 0.75 | 0.86 | 0.84 (0.58, 1.22) | 0.67 (0.48, 0.95)^5 | 0.67 | Recurrent wheeze in the first 2 yrs, Multivariable Model OR (95% CI) [2, 12]: 0.49; Any Wheeze, Supplements Only OR ([4]; 3rd vs 1st (lowest) quartile): 0.70; Any wheeze in the first 2 yrs, Multivariable Model OR (95% CI) [4, 8]: 0.70 (0.48, 1.03); Any wheeze in the first 2 yrs, Univariate Model OR (95% CI) [4, 8]: 0.52 (0.36, 0.74)^5; Any wheeze in the first 2 yrs, Multivariable Model OR (95% CI) [4, 12]: 0.70; Any Wheeze, Foods Only OR [4, 10]: 0.69; Any Wheeze, Supplements Only OR [4, 10]: 0.63; Association of total maternal intake with any wheeze in univariable models [4]: associated with lower risks
